According to patent US4000293A, “Method of inhibiting bacterial growth with certain selected 3-chloro-2-oxazolidinones” (Interx Research Corporation, priority 1975, dated 1976):

Columns and labels:
[1] = positive chlorine concentration before and after 14 day incubation of solutions at pH 7.0, 40° C., Table B; type: physicochemical
Procedure: (§1) The germicidal kill times so-obtained at various concentrations of the compounds of the invention and of certain reference compounds are given in Table A below. The compounds are identified in each case by the Example number above where the compounds are described. Here and elsewhere in the specification that follows, concentrations are expressed in parts per million (ppm) of "positive" chlorine, which was determined in each instance by addition of excess aqueous potassium iodide to an acidified solution of the test compound and titration of the iodine liberated with standard sodium thiosulfate solution.
(§2) The stabilities and the time-dependent efficacies of the claimed and reference species were determined by comparing the contact germicidal times and the initial and final concentrations of positive chlorine in solutions of the test species in 0.1M sodium dihydrogen phosphate buffered to pH 7.0 before and after 14 day incubation of the solutions at 40° C. The results are given in Table B below, where the columns headed "Bc Time" refers to the bactericidal time in minutes.

[2] = stability in the neat state (% chlorine by iodometric titration), Table D; type: physicochemical; conditions: 40° C.
Procedure: In those instances, the data were acquired at ambient temperature (approximately 23° C.). The method used was similar to that described above in which the rate of disappearance of "positive" chlorine was followed iodometrically by titration of iodine liberated from added potassium iodide with standard sodium thiosulfate solution. Samples of the compounds were individually sealed in ampoules and stored in the dark at 23° C. or 40° C. and weighed amounts removed from time to time for analysis.
For each of the compounds analyzed as indicated above, percent chlorine was plotted as ordinate against time in days as abscissa on semi-logarithmic paper and the points connected by a smooth curve for each compound.

[3] = system: Staphylococcus aureus ATCC 6538; assay: contact germicidal (bactericidal) time before and after 14 day incubation of solutions at 40° C., Table B; type: cell-based; conditions: pH 7.0
Procedure: (§3) The compounds of the invention and certain reference compounds were tested in the germidical efficiency test, a modification of the standard serial dilution test, against Staphylococcus aureus ATCC 6538. In the germicidal efficiency test, instead of determining the minimum inhibitory concentration as in the serial dilution test procedure, the time required to effect complete sterilization of the micro-organism when exposed to a given concentration of the test substance is determined. This procedure affords a basis of comparison of the time dependent efficacies of the various test substances which gives a measure not only of the germidical efficacy of the test species but, since as will be seen germicidal efficiency of the N-chloro compounds generally tends to diminish with time, apparently owing to decomposition of, and therefore dilution of, the active species, the test procedure also provides an indication of the efficacy to be expected at varying time intervals after solution of the test species in the application medium. The test procedure is described as follows: A stock solution of known concentration of each compound to be tested was prepared in 0.1M sodium dihydrogen phosphate buffered to pH 7.0. To 5 ml. of the test solution was added 0.2 ml. of an overnight broth culture containing from 6×10^6 to 8×10^6 organisms/ml. of Staphylococcus aureus ATCC 6538 and 5 g. of gelysate peptone and 3 g. of beef extract per 1000 ml. of water. At time intervals of 0.5, 1, 2, 3, 4, 5, 6, 7, 8, 9, 10, 15 and 30 minutes, a loop of this suspension was subcultured into 5 ml. of sterile nutrient broth (5 g. of gelysate peptone and 3 g. of beef extract/1000 ml. of water), and the samples were incubated at 37° C. for 7 days with daily observation for evidence of bacterial growth. The time interval in which no bacterial growth was observed after the incubation period in a particular sample was recorded as the end point.
as §2

[4] = hydrolytic stability in 0.1M sodium dihydrogen phosphate pH 7.0 at 40° (first-order kinetics), Table C; type: physicochemical
Procedure: A further measure of the relative stabilities of the reference and claimed species was obtained by measuring the hydrolytic stability of the various species in 0.1M sodium dihydrogen phosphate buffered to pH 7.0 at 40°. For each species, the rate of change in the concentration of positive chlorine in the solution was measured by the volume of standard thiosulfate required to titrate a series of aliquots of a standard volume of the solution at various time intervals using potassium iodide/sodium thiosulfate as detailed above. The volumes of thiosulfate required to titrate each sample so obtained were interpreted as first-order kinetic processes. The hydrolytic stabilities of the reference and claimed species under the experimental conditions were characterized by the reaction rate constants and half-lives obtained from a linear regression analysis of the experimental data. The results obtained are given in Table C below and are also shown in FIG. 1 where the volumes in milliliters of standard thiosulfate required to titrate the positive chlorine in the various samples are plotted as ordinate against time in days as abscissa.

[5] = system: Staphylococcus aureus ATCC 6538; assay: germicidal efficiency test (modified serial dilution; time to complete sterilization), Table A; type: cell-based; conditions: 473 ppm +Cl, pH 7.0
Procedure: The compounds are thus useful as bactericidal agents.
as §3, §1

CC1(C)CN(Cl)C(=O)O1 [Example 1G, 3-Chloro-5,5-dimethyl-2-oxazolidinone]
decomposition over the test period (in words) ([1]; 14 days, 40° C., pH 7.0): substantially decomposed over the test period | Final Concn. of positive chlorine ([1]; after 14 day incubation at 40° C., 0.1M phosphate pH 7.0): 43 ppm +Cl | Initial Concn. of positive chlorine ([1]; before incubation, 0.1M phosphate pH 7.0): 473 ppm +Cl | % Cl, neat ([2]; 0 Days): 19.6% | % Cl, neat ([2]; 1 Day): 22.1% | % Cl, neat ([2]; 4 Days): 23.7% | % Cl, neat ([2]; 7 Days): 16.5% | % Cl, neat ([2]; 11 Days): 18.1% | % Cl, neat ([2]; 15 Days): 14.4% | % Cl, neat ([2]; 19 Days): 10.0% | % Cl, neat ([2]; 22 Days): 0% | stability in the neat state (in words) ([2]; neat): surprising stability | bactericidal activity after the test period (in words) ([3]; after 14 days at 40° C.): retained a good measure of bactericidal activity superior to each of the reference species | Bc Time, initial ([3]; before incubation, at initial ppm +Cl of the same line): 7 min | half-life ([4]; 0.1m phosphate buffer, hydrolysis, 0.1M phosphate pH 7.0, 40°): 86.6 h | Rate Constant k ([4]; hydrolysis, first-order, 0.1M phosphate pH 7.0, 40°): 0.008 h⁻¹ | half-life relative to the half-lives of the reference species ([4]; hydrolysis, pH 7.0, 40°): around twice to eight times as great | hydrolytic stability (in words) ([4]; pH 7.0, 40°): somewhat less stable than the corresponding 4,4-dimethyl compound | Bactericidal Time [5]: 7 min
